US20050070510A1, “Substituted tetracycline compounds as synergistic antifungal agents” (Paratek Pharmaceuticals, Inc., priority 2001, published 2005)

system: COS-1 cells; assay: In vitro mammalian cytotoxicity assay (Resazurin)

Compound | In Vitro Cytotoxicity
CC(=O)C(N)c1cc(C(C)(C)C)c(O)c2c1C[C@@]1(N)C[C@@]3(N)[C@H](N(C)C)C(O)=C(C(N)=O)C(=O)[C@@]3(C#N)C(O)=C1C2=O (stereo partly shown) [NN] | * (toxicities greater than >25 μg/ml are represented by *)
CC(C)COC(=O)NCc1ccc(O)c2c1C[C@@]1(N)C[C@@]3(N)[C@H](N(C)C)C(O)=C(C(N)=O)C(=O)[C@@]3(C#N)C(O)=C1C2=O [NO] | ** (toxicities less than 25 μg/mL are represented by **)
CN(C)[C@@H]1C(O)=C(C(N)=O)C(=O)[C@@]2(C#N)C(O)=C3C(=O)c4c(O)ccc(CNC(=O)OCC(C)(C)C)c4C[C@@]3(N)C[C@@]12N [NP] | ** (toxicities less than 25 μg/mL are represented by **)
CN(C)[C@@H]1C(O)=C(C(N)=O)C(=O)[C@@]2(C#N)C(O)=C3C(=O)c4c(O)c(F)cc(CN)c4C[C@@]3(N)C[C@@]12N [NQ] | ** (toxicities less than 25 μg/mL are represented by **)
CN(C)[C@@H]1C(O)=C(C(N)=O)C(=O)[C@@]2(C#N)C(O)=C3C(=O)c4c(O)c(C(C)(C)C)cc(I)c4C[C@@]3(N)C[C@@]12N [NR] | ** (toxicities less than 25 μg/mL are represented by **)
CC(C)COC(=O)NCc1ccc(-c2ccc(O)c3c2C[C@@]2(N)C[C@@]4(N)[C@H](N(C)C)C(O)=C(C(N)=O)C(=O)[C@@]4(C#N)C(O)=C2C3=O)cc1 [NS] | ** (toxicities less than 25 μg/mL are represented by **)
CN(C)[C@@H]1C(O)=C(C(N)=O)C(=O)[C@@]2(C#N)C(O)=C3C(=O)c4c(O)c(C(C)(C)C)cc(-c5ccc6c(c5)OCO6)c4C[C@@]3(N)C[C@@]12N [NT] | ** (toxicities less than 25 μg/mL are represented by **)
CN(C)[C@@H]1C(O)=C(C(N)=O)C(=O)[C@@]2(C#N)C(O)=C3C(=O)c4c(O)ccc(-c5cc6ccccc6o5)c4C[C@@]3(N)C[C@@]12N [NW] | ** (toxicities less than 25 μg/mL are represented by **)
CN(C)CC(=O)NCc1ccc(-c2ccc(O)c3c2C[C@@]2(N)C[C@@]4(N)[C@H](N(C)C)C(O)=C(C(N)=O)C(=O)[C@@]4(C#N)C(O)=C2C3=O)cc1 [NY] | ** (toxicities less than 25 μg/mL are represented by **)
CCOC(=O)C(NCc1ccc(OC)c(-c2ccc(O)c3c2C[C@@]2(N)C[C@@]4(N)[C@H](N(C)C)C(O)=C(C(N)=O)C(=O)[C@@]4(C#N)C(O)=C2C3=O)c1)C(C)C (stereo partly shown) [NZ] | ** (toxicities less than 25 μg/mL are represented by **)
COC(=O)C(CC(C)C)NCc1ccc(OC)c(-c2ccc(O)c3c2C[C@@]2(N)C[C@@]4(N)[C@H](N(C)C)C(O)=C(C(N)=O)C(=O)[C@@]4(C#N)C(O)=C2C3=O)c1 (stereo partly shown) [OA] | ** (toxicities less than 25 μg/mL are represented by **)
CCOC(=O)C(Cc1ccccc1)NCc1ccc(OC)c(-c2ccc(O)c3c2C[C@@]2(N)C[C@@]4(N)[C@H](N(C)C)C(O)=C(C(N)=O)C(=O)[C@@]4(C#N)C(O)=C2C3=O)c1 (stereo partly shown) [OB] | ** (toxicities less than 25 μg/mL are represented by **)
CC(C)COC(=O)Nc1ccc(-c2ccc(O)c3c2C[C@@]2(N)C[C@@]4(N)[C@H](N(C)C)C(O)=C(C(N)=O)C(=O)[C@@]4(C#N)C(O)=C2C3=O)cc1 [OD] | ** (toxicities less than 25 μg/mL are represented by **)
CC(C)NCc1ccc(-c2ccc(O)c3c2C[C@@]2(N)C[C@@]4(N)[C@H](N(C)C)C(O)=C(C(N)=O)C(=O)[C@@]4(C#N)C(O)=C2C3=O)c2ccccc12 [OE] | ** (toxicities less than 25 μg/mL are represented by **)
CN(C)[C@@H]1C(O)=C(C(N)=O)C(=O)[C@@]2(C#N)C(O)=C3C(=O)c4c(O)ccc(-c5ccc(CNCCc6ccc(Cl)cc6)cc5)c4C[C@@]3(N)C[C@@]12N [OF] | ** (toxicities less than 25 μg/mL are represented by **)
CN(C)[C@@H]1C(O)=C(C(N)=O)C(=O)[C@@]2(C#N)C(O)=C3C(=O)c4c(O)ccc(-c5ccc(CNCc6cccc(F)c6)cc5)c4C[C@@]3(N)C[C@@]12N [OG] | ** (toxicities less than 25 μg/mL are represented by **)
CN(C)CC#Cc1cc(C(C)(C)C)c(O)c2c1C[C@@]1(N)C[C@@]3(N)[C@H](N(C)C)C(O)=C(C(N)=O)C(=O)[C@@]3(C#N)C(O)=C1C2=O [OH] | ** (toxicities less than 25 μg/mL are represented by **)
CC(C)c1cccc(-c2ccc(O)c3c2C[C@@]2(N)C[C@@]4(N)[C@H](N(C)C)C(O)=C(C(N)=O)C(=O)[C@@]4(C#N)C(O)=C2C3=O)c1 [OI] | ** (toxicities less than 25 μg/mL are represented by **)
Cc1ccc(-c2ccc(O)c3c2C[C@@]2(N)C[C@@]4(N)[C@H](N(C)C)C(O)=C(C(N)=O)C(=O)[C@@]4(C#N)C(O)=C2C3=O)cc1C [OJ] | ** (toxicities less than 25 μg/mL are represented by **)
COc1cc(-c2ccc(O)c3c2C[C@@]2(N)C[C@@]4(N)[C@H](N(C)C)C(O)=C(C(N)=O)C(=O)[C@@]4(C#N)C(O)=C2C3=O)cc(OC)c1OC [OK] | ** (toxicities less than 25 μg/mL are represented by **)
COc1ccc2c(c1)cc1c3c(c(O)ccc32)C(=O)C2=C(O)[C@]3(C#N)C(=O)C(C(N)=O)=C(O)[C@@H](N(C)C)[C@]3(N)C[C@@]21N [OL] | ** (toxicities less than 25 μg/mL are represented by **)
COc1ccc(-c2ccc(O)c3c2C[C@@]2(N)C[C@@]4(N)[C@H](N(C)C)C(O)=C(C(N)=O)C(=O)[C@@]4(C#N)C(O)=C2C3=O)c(OC)c1 [OM] | ** (toxicities less than 25 μg/mL are represented by **)
CN(C)[C@@H]1C(O)=C(C(N)=O)C(=O)[C@@]2(C#N)C(O)=C3C(=O)c4c(O)ccc(-c5ccc(CN6CCOCC6)c6ccccc56)c4C[C@@]3(N)C[C@@]12N [ON] | ** (toxicities less than 25 μg/mL are represented by **)
CN(C)[C@@H]1C(O)=C(C(N)=O)C(=O)[C@@]2(C#N)C(O)=C3C(=O)c4c(O)ccc(-c5ccc(CN6CCCC6)c6ccccc56)c4C[C@@]3(N)C[C@@]12N [OO] | ** (toxicities less than 25 μg/mL are represented by **)
CCCN(CCC)Cc1ccc(-c2ccc(O)c3c2C[C@@]2(N)C[C@@]4(N)[C@H](N(C)C)C(O)=C(C(N)=O)C(=O)[C@@]4(C#N)C(O)=C2C3=O)c2ccccc12 [OP] | ** (toxicities less than 25 μg/mL are represented by **)
CCOC(=O)CNCc1ccc(-c2ccc(O)c3c2C[C@@]2(N)C[C@@]4(N)[C@H](N(C)C)C(O)=C(C(N)=O)C(=O)[C@@]4(C#N)C(O)=C2C3=O)c2ccccc12 [OQ] | ** (toxicities less than 25 μg/mL are represented by **)
CCOc1ccc(-c2ccc(O)c3c2C[C@@]2(N)C[C@@]4(N)[C@H](N(C)C)C(O)=C(C(N)=O)C(=O)[C@@]4(C#N)C(O)=C2C3=O)cc1CN [OR] | * (toxicities greater than >25 μg/ml are represented by *)
CCOC(=O)CNCc1ccc(-c2ccc(O)c3c2C[C@@]2(N)C[C@@]4(N)[C@H](N(C)C)C(O)=C(C(N)=O)C(=O)[C@@]4(C#N)C(O)=C2C3=O)cc1 [OS] | ** (toxicities less than 25 μg/mL are represented by **)
